Patent US6683103B2, “Sulfonamides for treatment of endothelin-mediated disorders” (Texas Biotechnology Corporation, priority 1997, dated 2004)
Read-outs that look alike come from different tables or passages of the source.

Tests used:
human ETA receptors = molecular target: T1, human ETA receptors (Homo sapiens, UniProt P25101); assay: Binding Test #1: inhibition of 125I-ET-1 binding to ETA receptors (TE 671 cell membranes); details: read-out: ETA
T1 construct: endogenous in cells; host or cells: TE 671 cells (ATCC HTB 139)
T1 sequence (P25101 21-427): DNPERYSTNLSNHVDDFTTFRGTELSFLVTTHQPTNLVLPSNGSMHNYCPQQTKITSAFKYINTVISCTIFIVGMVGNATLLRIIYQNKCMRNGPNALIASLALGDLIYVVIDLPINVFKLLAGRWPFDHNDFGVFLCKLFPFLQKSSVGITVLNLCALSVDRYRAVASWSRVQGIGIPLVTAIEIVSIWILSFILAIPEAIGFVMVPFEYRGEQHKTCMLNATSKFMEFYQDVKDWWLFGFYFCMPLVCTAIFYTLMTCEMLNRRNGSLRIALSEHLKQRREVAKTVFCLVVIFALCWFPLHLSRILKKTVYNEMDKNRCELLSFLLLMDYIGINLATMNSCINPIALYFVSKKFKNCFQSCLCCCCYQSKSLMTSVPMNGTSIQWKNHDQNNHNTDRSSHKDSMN
From the text: (§1) Compounds that are potential endothelin antagonists are identified by testing their ability to compete with ^125I-labeled ET-1 for binding to human ETA receptors or ETB receptors present on isolated cell membranes. The effectiveness of the test compound as an antagonist or agonist of the biological tissue response of endothelin can also be assessed by measuring the effect on endothelin induced contraction of isolated rat thoracic aortic rings. The ability of the compounds to act as antagonists or agonists for ETB receptors can be assess by testing the ability of the compounds are to inhibit endothelin-1 induced prostacyclin release from cultured bovine aortic endothelial cells.
A. Endothelin Binding Inhibition—Binding Test #1: Inhibition of Binding to ETA Receptors
TE 671 cells (ATCC Accession No. HTB 139) express ETA receptors. These cells were grown to confluence in T-175 flasks. Cells from multiple flasks were collected by scraping, pooled and centrifuged for 10 min at 190×g. The cells were resuspended in phosphate buffered saline (PBS) containing 10 mM EDTA using a Tenbroeck homogenizer. The suspension was centrifuged at 4° C. at 57,800×g for 15 min, the pellet was resuspended in 5 ml of buffer A (5 mM HEPES buffer, pH 7.4 containing aprotinin (100 KIU/ml)) and then frozen and thawed once. 5 ml of Buffer B (5 mM HEPES Buffer, pH 7.4 containing 10 mM MnCl2 and 0.001% deoxyribonuclease Type 1) was added, the suspension mixed by inversion and then incubated at 37° C. for 30 minutes. The mixture was centrifuged at 57,800×g as described above, the pellet washed twice with buffer A and then resuspended in buffer C (30 mM HEPES buffer, pH 7.4 containing aprotinin (100 KIU/ml) to give a final protein concentration of 2 mg/ml and stored at −70° C. until use.
The membrane suspension was diluted with binding buffer (30 mM HEPES buffer, pH 7.4 containing 150 mM NaCl, 5mM MgCl2, 0.5% Bacitracin) to a concentration of 8 μg/50 μl. ^125I-endothelin-1 (3,000 cpm, […]) was added to 50 μL of either: (A) endothelin-1 (for non specific binding) to give a final concentration 80 nM); (B) binding buffer (for total binding); or (C) a test compound (final concentration 1 nM to 100 μM). The membrane suspension (50 μL), containing up to 8 μg of membrane protein, was added to each of (A), (B), or (C). Mixtures were shaken, and incubated at 4° C. for 16-18 hours, and then centrifuged at […] for 25 min at 2,500×g. Alternatively, the incubation was conducted at 24° C. […] This, must be kept in mind when comparing IC50 concentrations among compounds provided herein.
The supernatant, containing unbound radioactivity, was decanted and the pellet counted on a Genesys multiwell gamma counter. The degree of inhibition of binding (D) was calculated according to the following equation: [formula]
Each test was generally performed in triplicate.

human ETB receptor = molecular target: T2, human ETB receptor (Homo sapiens, UniProt P24530); assay: Binding Test #2: inhibition of 125I-ET-1 binding to ETB receptors (transfected COS7 cell membranes); details: read-out: ETB
T2 construct: expressed in transfected cells; host or cells: COS7 cells
T2 sequence (P24530 27-442): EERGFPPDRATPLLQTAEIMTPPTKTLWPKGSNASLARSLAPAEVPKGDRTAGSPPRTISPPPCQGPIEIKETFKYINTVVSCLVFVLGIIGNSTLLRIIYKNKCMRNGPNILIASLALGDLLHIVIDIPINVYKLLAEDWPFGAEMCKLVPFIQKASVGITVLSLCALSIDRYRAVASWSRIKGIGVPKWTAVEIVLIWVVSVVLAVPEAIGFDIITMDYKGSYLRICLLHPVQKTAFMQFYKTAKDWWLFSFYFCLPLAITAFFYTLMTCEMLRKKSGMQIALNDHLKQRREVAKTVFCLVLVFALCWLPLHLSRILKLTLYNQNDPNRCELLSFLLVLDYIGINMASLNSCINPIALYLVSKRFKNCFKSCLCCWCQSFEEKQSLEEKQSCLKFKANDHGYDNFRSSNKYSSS
From the text: as §1
B. Endothelin Binding Inhibition—Binding Test #2: Inhibition of Binding to ETB Receptors
COS7 cells were transfected with DNA encoding the ETB receptor, The resulting cells, which express the human ETB receptor, were grown to confluence in T-150 flasks. Membrane was prepared as described above. The binding assay was performed as described above using the membrane preparation diluted with binding buffer to a concentration of 1 μg/50 μl.
Briefly, the COS7 cells, described above, that had been transfected with DNA encoding the ETB receptor and express the human ETB receptor on their surfaces were grown to confluence in T-1 75 flasks. Cells from multiple flasks were collected by scraping, pooled and centrifuged for 10 min at 190×g. The cells were resuspended in phosphate buffered saline (PBS) containing 10 mM EDTA using a Tenbroeck homogenizer. The suspension was centrifuged at 4° C. 57,800 X g for 15 min, the pellet was resuspended in 5 ml of buffer A (5mM HEPES buffer, pH 7.4 containing aprotinin (100 KIU/ml)) and then frozen and thawed once. Five ml of Buffer B (5 mM HEPES Buffer, pH 7.4 containing 10 mM MnCl2 and 0.001% deoxyribonuclease Type 1) was added, the suspension mixed by inversion and then incubated at 37° C. for 30 minutes. The mixture was centrifuged at 57,800×g as described above, the pellet washed twice with buffer A and then resuspended in buffer C (30 mM HEPES buffer, pH 7.4 containing aprotinin (100 KIU/ml) to give a final protein concentration of 2 mg/ml.
The binding assay was performed as described above using the membrane preparation diluted to give 1 μg/50 μl of binding buffer.

[1] = Table 2, † incubation at 24° C.
[2] = Table 1, † incubation at 24° C.

Row | SMILES | IC50 (human ETA receptors; Table 1, incubation at 4° C.) | IC50 (human ETB receptor; Table 1, incubation at 4° C.) | IC50 (human ETA receptors; [2]) | IC50 (human ETB receptor; [2]) | also measured
1 | Cc1noc(NS(=O)(=O)c2sc3ccc(Cl)cc3c2C)c1Br [N-(4-Bromo-3-methyl-5-isoxazolyl)-5-chloro-3-methylbenzo[b]thiophene-2-sulfonamide] | 960 nM | 1630 nM |  |  | 
2 | Cc1noc(NS(=O)(=O)c2ccc(-c3cc(C(F)(F)F)n(C)n3)s2)c1Br [N-(4-Bromo-3-methyl-5-isoxazolyl)-5-{3-[1-methyl-5-(trifluoromethyl)pyrazolyl]}thiophene-2-sulfonamide] | ~6700 nM | ~360 nM |  |  | 
3 | Cc1c(C(F)(F)F)noc1NS(=O)(=O)c1ccc(-c2ccccc2)cc1 [N-(4-Methyl-3-trifluoromethyl-5-isoxazolyl)-4-biphenylsulfonamide] |  |  |  |  | IC50 (human ETA receptors; Table 2, incubation at 4° C.): 19000 nM; IC50 (human ETB receptor; Table 2, incubation at 4° C.): 1700 nM; IC50 (human ETB receptor; [1]): 5620 nM
4 | CCCCCCCCCCCCCc1c(C(F)(F)F)noc1NS(=O)(=O)c1ccc(-c2ccccc2)cc1 [N-(4-Tridecyl-3-trifluoromethyl-5-isoxazolyl)-4-biphenylsulfonamide] |  |  |  |  | IC50 (human ETA receptors; Table 2, incubation at 4° C.): 34000 ± 9000 nM; IC50 (human ETA receptors; [1]): 33000 nM; IC50 (human ETB receptor; Table 2, incubation at 4° C.): 990 ± 200 nM; IC50 (human ETB receptor; [1]): 950 nM
5 | Cc1noc(NS(=O)(=O)c2cccs2)c1Br [N-(4-bromo-3-methyl-5-isoxazolyl)2-thiophenesulfonamide] | 95 ± 70 nM | 27700 ± 15000 nM |  |  | 
6 | Cc1noc(NS(=O)(=O)c2cc3ccccc3n2C)c1Br [N-(4-bromo-3-methyl-5-isoxazolyl)-1-methylindole-2-sulfonamide] |  |  | 77000 nM | ~100000 nM | 
7 | Cc1noc(NS(=O)(=O)c2c(C)sc(C)c2-c2ccccc2)c1Br [N-(4-bromo-3-methyl-5-isoxazolyl)-2,5-dimethyl-4-phenylthiophene-3-sulfonamide] | 1400 nM | ~100000 nM |  |  | 
8 | Cc1cc(S(=O)(=O)Nc2onc(C)c2Br)c(C)o1 [N-(4-bromo-3-methyl-5-isoxazolyl)-2,5-dimethylfuran-3-sulfonamide] | 460 nM | 36500 nM |  |  | 
9 | Cc1ccc(C=CCc2sccc2S(=O)(=O)Nc2onc(C)c2Br)c(C)c1 [N-(4-bromo-3-methyl-5-isoxazolyl)-2-(2,4-dimethylcinnamyl)thiophene-3-sulfonamide] |  |  | 166 nM | 2970 nM | 
10 | CCCCc1ccc(NC(=O)c2sccc2S(=O)(=O)Nc2onc(C)c2Br)cc1 [N-(4-bromo-3-methyl-5-isoxazolyl)-2-(4-butylphenyl)aminocarbonylthiophene-3-sulfonamide] | 44 nM | 2840 nM |  |  | 
11 | Cc1noc(NS(=O)(=O)c2ccsc2C(=O)Nc2ccc(C(C)(C)C)cc2)c1Br [N-(4-bromo-3-methyl-5-isoxazolyl)-2-(4-t-butylphenyl)aminocarbonylthiophene-3-sulfonamide] | 11 nM | 2820 nM |  |  | 
12 | Cc1noc(NS(=O)(=O)c2ccsc2C(=O)Nc2ccccc2)c1Br [N-(4-bromo-3-methyl-5-isoxazolyl)-2-(N-phenylaminocarbonyl)thiophene-3-sulfonamide] | 5.4 nM | 18800 nM |  |  | 
13 | Cc1noc(NS(=O)(=O)c2ccsc2CCc2ccc3c(c2)OCO3)c1Br [N-(4-bromo-3-methyl-5-isoxazolyl)-2-[(3,4-methylenedioxy)phenethyl]thiophene-3-sulfonamide] |  |  | 210 nM | 9200 nM | 

The next lines start with results.

Row | IC50 (human ETA receptors; Table 1, incubation at 4° C.) | IC50 (human ETB receptor; Table 1, incubation at 4° C.) | IC50 (human ETA receptors; [2]) | IC50 (human ETB receptor; [2]) | SMILES | also measured
14 | 20.8 nM | 98100 nM |  |  | COC(=O)c1sccc1S(=O)(=O)Nc1onc(C)c1Br [N-(4-bromo-3-methyl-5-isoxazolyl)-2-(carbomethoxy)thiophene-3-sulfonamide] | 
15 |  |  | 80.4 nM | 3280 nM | Cc1cc2c(cc1C=CCc1sccc1S(=O)(=O)Nc1onc(C)c1Br)OCO2 [N-(4-bromo-3-methyl-5-isoxazolyl)-2-[2-methyl-4,5-(methylenedioxy)cinnamyl]thiophene-3-sulfonamide] | 
16 |  |  | 61.9 nM | 8900 nM | Cc1cc2c(cc1CCc1sccc1S(=O)(=O)Nc1onc(C)c1Br)OCO2 [N-(4-bromo-3-methyl-5-isoxazolyl)-2-[2-methyl-4,5-(methylenedioxy)phenethyl]thiophene-3-sulfonamide] | 
17 |  |  | 89 nM | 37000 nM | Cc1noc(NS(=O)(=O)c2ccsc2C(=O)NC(=O)c2ccc3c(c2)OCO3)c1Br [N-(4-bromo-3-methyl-5-isoxazolyl)-2-[(3,4-methylenedioxy)benzoyl]aminocarbonyl]thiophene-3-sulfonamide] | 
18 |  |  | 2000 nM | 15000 nM | Cc1noc(NS(=O)(=O)c2ccsc2C(=O)c2ccc3c(c2)OCO3)c1Br [N-(4-bromo-3-methyl-5-isoxazolyl)-2-[(3,4-methylenedioxy)benzoyl]thiophene-3-sulfonamide] | 
19 | < 10 nM | 1670 nM |  |  | Cc1ccc(NC(=O)c2sccc2S(=O)(=O)Nc2onc(C)c2Br)cc1 [N-(4-bromo-3-methyl-5-isoxazolyl)-2-[-(4-tolulylaminocarbonyl]thiophene-3-sulfonamide] | 
20 | < 10 nM | 1130 nM |  |  | Cc1noc(NS(=O)(=O)c2ccsc2C(=O)Nc2ccc(C(C)C)cc2)c1Br [N-(4-bromo-3-methyl-5-isoxazolyl)-2-[N-(4-isopropylphenyl)aminocarbonyl]thiophene-3-sulfonamide] | 
21 | ~8 nM | 1760 nM |  |  | CCC(C)c1ccc(NC(=O)c2sccc2S(=O)(=O)Nc2onc(C)c2Br)cc1 (stereo not drawn) [N-(4-bromo-3-methyl-5-isoxazolyl)-2-[N-(4-sec-butylphenyl)aminocarbonyl]thiophene-3-sulfonamide] | 
